Our source for the IC50 values is patent US11078197B2, “5-membered and bicyclic heterocyclic amides as inhibitors of rock” (BRISTOL-MYERS SQUIBB COMPANY, priority 2017, dated 2021).

As usually defined, the IC50 is the concentration at which inhibition is half-maximal. Read a low IC50 as greater potency in that assay.

ROCK2, sequence (O75116 whole entry, species assumed): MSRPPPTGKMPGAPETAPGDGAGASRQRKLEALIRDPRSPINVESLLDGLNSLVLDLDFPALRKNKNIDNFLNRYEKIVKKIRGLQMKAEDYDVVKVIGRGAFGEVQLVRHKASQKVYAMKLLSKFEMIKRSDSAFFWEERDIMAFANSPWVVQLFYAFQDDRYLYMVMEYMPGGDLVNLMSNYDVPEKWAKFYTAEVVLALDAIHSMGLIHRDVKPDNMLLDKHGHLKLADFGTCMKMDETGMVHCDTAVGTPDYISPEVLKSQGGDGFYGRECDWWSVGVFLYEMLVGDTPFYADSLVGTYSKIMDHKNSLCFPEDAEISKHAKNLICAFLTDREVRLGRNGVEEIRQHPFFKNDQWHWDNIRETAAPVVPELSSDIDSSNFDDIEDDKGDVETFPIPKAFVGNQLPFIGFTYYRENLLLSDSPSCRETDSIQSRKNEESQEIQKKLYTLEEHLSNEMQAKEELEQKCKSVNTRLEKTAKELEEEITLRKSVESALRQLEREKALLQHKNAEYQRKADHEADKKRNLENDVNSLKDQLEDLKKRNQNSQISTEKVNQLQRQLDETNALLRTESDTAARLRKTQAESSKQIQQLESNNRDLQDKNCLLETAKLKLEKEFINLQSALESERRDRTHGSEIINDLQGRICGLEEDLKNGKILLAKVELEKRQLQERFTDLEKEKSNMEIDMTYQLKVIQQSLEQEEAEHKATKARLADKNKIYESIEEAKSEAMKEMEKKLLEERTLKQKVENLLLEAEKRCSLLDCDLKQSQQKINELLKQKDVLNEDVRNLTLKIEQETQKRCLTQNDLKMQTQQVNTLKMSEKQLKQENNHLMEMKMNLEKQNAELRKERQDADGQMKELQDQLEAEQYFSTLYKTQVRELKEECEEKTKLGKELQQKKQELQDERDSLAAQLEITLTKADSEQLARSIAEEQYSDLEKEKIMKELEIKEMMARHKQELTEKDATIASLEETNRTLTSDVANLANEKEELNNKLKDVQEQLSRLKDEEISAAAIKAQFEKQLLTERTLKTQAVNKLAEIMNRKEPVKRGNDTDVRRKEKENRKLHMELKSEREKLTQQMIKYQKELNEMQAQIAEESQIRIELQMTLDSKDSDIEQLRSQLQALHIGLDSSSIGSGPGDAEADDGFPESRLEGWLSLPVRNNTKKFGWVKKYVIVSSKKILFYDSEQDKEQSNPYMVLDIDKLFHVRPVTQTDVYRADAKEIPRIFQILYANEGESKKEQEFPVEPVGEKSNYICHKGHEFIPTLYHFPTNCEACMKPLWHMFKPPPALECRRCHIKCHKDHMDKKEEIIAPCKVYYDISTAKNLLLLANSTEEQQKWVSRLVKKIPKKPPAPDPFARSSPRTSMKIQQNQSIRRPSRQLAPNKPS

The target in the assay is ROCK2 (Homo sapiens (Human), UniProt O75116). Put plainly: ROCK2 assay (peptide phosphorylation, LABCHIP 3000 Reader). It is filed as biochemical. The note with it: 5 μM ATP, 1.5 μM peptide substrate, dose-response. As for the experimental part:
After incubation, the reaction was terminated by the addition of EDTA and the phosphorylated and non-phosphorylated peptides separated using a LABCHIP®3000 Reader (Caliper Life Sciences). […] Compounds were tested in dose-response format, and the inhibition of kinase activity was calculated at each concentration of compound. […] Representative Examples were tested in the ROCK2 assay described above and found having ROCK2 inhibitory activity.
`Cn1cc(C(N)=O)c(O[C@H]2C[C@@]3(C[C@H](NC(=O)c4cnn5c(C6CC6)c(OCC(C)(C)O)ccc45)C3)C2)n1` (stereo partly drawn) [Example 14, 3-({(aR)-6-[7-cyclopropyl-6-(2-hydroxy-2-methylpropoxy)pyrazolo [1,5-a]pyridine-3-amido]spiro[3.3]heptan-2-yl}oxy)-1-methyl-1H-pyrazole-4-carboxamide] gave an IC50 of 14.1 nM.
For `COc1cccc2c(C(N)=O)c(O[C@H]3C[C@@]4(C[C@H](NC(=O)c5nn(C(F)F)c6cc(OCC(C)(C)O)ccc56)C4)C3)nn12` (stereo partly shown) [Example 138, 1-(difluoromethyl)-6-(2-hydroxy-2-methylpropoxy)-N-[(4s)-6-({3-carbamoyl-7-methoxypyrazolo[1,5-a]pyridin-2-yl}oxy)spiro[3.3]heptan-2-yl]-1H-indazole-3-carboxamide] the value was 22 nM; for `Cc1csc2cc(C(N)=O)c(O[C@H]3C[C@@]4(C[C@H](NC(=O)c5cccc(C#N)c5)C4)C3)nc12` (stereo partly drawn) [Example 98, 3-methyl-5-{[(aR)-6-(3-cyanobenzamido)spiro[3.3]heptan-2-yl]oxy}thieno[3,2-b]pyridine-6-carboxamide], 25.7 nM.
Molecule `CC(C)(O)COc1ccc2c(C(=O)N[C@H]3C[C@]4(C3)C[C@H](Oc3c(C(N)=O)cnn3C(F)F)C4)cnn2c1C1CC1` (stereo partly drawn) [Example 39, 5-({(aR)-6-[7-cyclopropyl-6-(2-hydroxy-2-methylpropoxy)pyrazolo [1,5-a]pyridine-3-amido]spiro[3.3]heptan-2-yl}oxy)-1-(difluoromethyl)-1H-pyrazole-4-carboxamide] showed a 50% inhibitory concentration (IC50) of 2400 nM.
As for `COc1ccc(-n2ncc(C(=O)N[C@H]3C[C@]4(C3)C[C@H](Oc3nn(C5CC5)cc3C(N)=O)C4)c2C)cn1` (stereo partly drawn) [Example 50, 1-cyclopropyl-3-{[(aR)-6-[1-(6-methoxypyridin-3-yl)-5-methyl-1H-pyrazole-4-amido]spiro[3.3]heptan-2-yl]oxy}-1H-pyrazole-4-carboxamide], inhibition was half-maximal at 322 nM (IC50).
`Cn1ncc2cc(C(N)=O)c(O[C@H]3C[C@@]4(C[C@H](NC(=O)c5nn(CC(F)F)c6cc(OCC(C)(C)F)ccc56)C4)C3)nc21` (stereo partly shown) [Example 160, 1-(2,2-difluoroethyl)-6-(2-fluoro-2-methylpropoxy)-N-[(4s)-6-({5-carbamoyl-1-methyl-1H-pyrazolo[3,4-b]pyridin-6-yl}oxy)spiro[3.3]heptan-2-yl]-1H-indazole-3-carboxamide] had an IC50 of 1.6 nM.
`Cc1c(C(=O)N[C@H]2C[C@]3(C2)C[C@H](Oc2nc(C4CC4)sc2C(N)=O)C3)cnn1-c1ccc(F)cc1F` (stereo partly drawn) [Example 67, 2-cyclopropyl-4-{[(aR)-6-[1-(2,4-difluorophenyl)-5-methyl-1H-pyrazole-4-amido]spiro[3.3]heptan-2-yl]oxy}-1,3-thiazole-5-carboxamide]: the 50% inhibitory concentration (IC50) was determined as 142 nM.
On to `CC(C)CC1NC(=O)N([C@H]2C[C@@]3(C[C@H](Oc4nc(C5CC5)sc4C(N)=O)C3)C2)C1=O` (stereo partly shown) [Example 10], for which the IC50 turned out to be 27.4 nM.
`Cc1c(C(=O)N[C@H]2C[C@]3(C2)C[C@H](Oc2nn(C)cc2C(N)=O)C3)cnn1-c1ccc(C#N)cc1` (stereo partly drawn) [Example 46, 1-(4-cyanophenyl)-5-methyl-N-[(aR)-6-[(4-carbamoyl-1-methyl-1H-pyrazol-3-yl)oxy]spiro[3.3]heptan-2-yl]-1H-pyrazole-4-carboxamide] returned a 50% inhibitory concentration (IC50) of 359 nM.
With `Cc1sc2cc(C(N)=O)c(O[C@H]3CC4(C[C@H](NC(=O)c5nnc(NCC(C)C)s5)C4)C3)nc2c1C` (stereo partly shown) [Example 162, 5-[(2-methylpropyl)amino]-N-[(4s)-6-({6-carbamoyl-2,3-dimethylthieno[3,2-b]pyridin-5-yl}oxy)spiro[3.3]heptan-2-yl]-1,3,4-thiadiazole-2-carboxamide], the half-inhibitory concentration (IC50) was 162 nM.
For `N#Cc1cc(C(=O)N[C@H]2C[C@]3(C2)C[C@H](Oc2nn(-c4ccccc4)cc2C(N)=O)C3)cc(-c2cnn(C(F)F)c2)c1` (stereo partly drawn) [Example 41, 1-phenyl-3-{[(aR)-6-{3-cyano-5-[1-(difluoromethyl)-1H-pyrazol-4-yl]benzamido}spiro [3.3]heptan-2-yl]oxy}-1H-pyrazole-4-carboxamide], the midpoint of inhibition, the IC50, lay at 55.6 nM.
Molecule `Cn1cc(C(N)=O)c(OC2CC3(CC(NC(=O)c4cnn5cc(OCCC(F)(F)F)ccc45)C3)C2)n1` [Example 4, N-((aR)-6-((4-Carbamoyl-1-methyl-1H-pyrazol-3-yl)oxy)spiro[3.3]heptan-2-yl)-6-(3,3,3-trifluoropropoxy)pyrazolo[1,5-a]pyridine-3-carboxamide] showed an IC50 of 20.1 nM.
`[H][C@]1(Oc2nc(C3CC3)sc2C(N)=O)C[C@]2(C[C@@H](NC(=O)c3nc(C(F)(F)F)n4cc(-n5ccccc5=O)ccc34)C2)C1` (stereo partly drawn) [Example 3, 2-Cyclopropyl-4-(((aR)-6-(6-(2-oxopyridin-1(2H)-yl)-3-(trifluoromethyl)imidazo[1,5-a]pyridine-1-carboxamido)spiro[3.3]heptan-2-yl)oxy)thiazole-5-carboxamide] returned an IC50 of 68.8 nM.
In the case of `COCCn1cc(C(N)=O)c(O[C@H]2C[C@@]3(C[C@H](NC(=O)c4cnn5c(C6CC6)c(OCC(C)(C)O)ccc45)C3)C2)n1` (stereo partly drawn) [Example 23, 3-({(aR)-6-[7-cyclopropyl-6-(2-hydroxy-2-methylpropoxy)pyrazolo [1,5-a]pyridine-3-amido]spiro[3.3]heptan-2-yl}oxy)-1-(2-methoxyethyl)-1H-pyrazole-4-carboxamide], the IC50 worked out at 77.7 nM.
In turn, `Cc1nn(C)c2nc(OC3CC4(CC(NC(=O)c5cnn6cc(OCC(C)(C)O)ccc56)C4)C3)c(C(N)=O)cc12` (stereo not shown) [Example 73, 6-({6-[6-(2-hydroxy-2-methylpropoxy)pyrazolo [1,5-a]pyridine-3-amido]spiro[3.3]heptan-2-yl}oxy)-1,3-dimethyl-1H-pyrazolo[3,4-b]pyridine-5-carboxamide] yielded a 50% inhibitory concentration (IC50) of 1160 nM.
Molecule `Cc1c(C(=O)N[C@H]2C[C@]3(C2)C[C@H](Oc2nn(C4CC4)cc2C(N)=O)C3)cnn1-c1ccccc1` (stereo partly drawn) [Example 65, 1-cyclopropyl-3-{[(aR)-6-(5-methyl-1-phenyl-1H-pyrazole-4-amido)spiro[3.3]heptan-2-yl]oxy}-1H-pyrazole-4-carboxamide] registered a half-inhibitory concentration (IC50) of 141 nM.
For `Cn1ncc2cc(C(N)=O)c(O[C@H]3C[C@@]4(C[C@H](NC(=O)c5cccc(CO)n5)C4)C3)nc21` (stereo partly shown) [Example 148, 6-(hydroxymethyl)-N-[(4s)-6-({5-carbamoyl-1-methyl-1H-pyrazolo[3,4-b]pyridin-6-yl}oxy)spiro[3.3]heptan-2-yl]pyridine-2-carboxamide], the half-inhibitory concentration (IC50) was found to be 52.7 nM.
Consider `NC(=O)c1cn(C(F)F)nc1O[C@H]1C[C@@]2(C[C@H](NC(=O)c3cnn4cc(OCC(O)(C(F)(F)F)C(F)(F)F)ccc34)C2)C1` (stereo partly drawn) [Example 52, 1-(difluoromethyl)-3-{[(aR)-6-{6-[3,3,3-trifluoro-2-hydxoxy-2-(trifluoromethyl)propoxy]pyrazolo [1,5-a]pyridine-3-amido}spiro[3.3]heptan-2-yl]oxy}-1H-pyrazole-4-carboxamide], for which the IC50 worked out at 33.9 nM.
`NC(=O)c1cn(C(F)F)nc1O[C@H]1C[C@@]2(C[C@H](NC(=O)c3cnn4cc(OCC(F)(F)F)ccc34)C2)C1` (stereo partly drawn) [Example 53, 1-(difluoromethyl)-3-{[(aR)-6-[6-(2,2,2-trifluoroethoxy)pyrazolo[1,5-a]pyridine-3-amido]spiro[3.3]heptan-2-yl]oxy}-1H-pyrazole-4-carboxamide]: 22 nM corresponded to half-maximal inhibition (IC50).
`CC(C)(O)COc1ccc2c(C(=O)N[C@H]3C[C@]4(C3)C[C@H](Oc3nn(-c5ccccc5)cc3C(N)=O)C4)nn(C(F)F)c2c1` (stereo partly drawn) [Example 42, 1-(difluoromethyl)-6-(2-hydroxy-2-methylpropoxy)-N-[(aR)-6-[(4-carbamoyl-1-phenyl-1H-pyrazol-3-yl)oxy]spiro[3.3]heptan-2-yl]-1H-indazole-3-carboxamide] yielded a concentration for half-maximal inhibition (IC50) of 13.7 nM.
In the case of `Cc1c(C(=O)N[C@H]2C[C@]3(C2)C[C@H](Oc2nn4ccccc4c2C(N)=O)C3)cnn1-c1ccc(C#N)cc1` (stereo partly shown) [Example 118, 1-(4-cyanophenyl)-5-methyl-N-[(4s)-6-({3-carbamoylpyrazolo[1,5-a]pyridin-2-yl}oxy)spiro[3.3]heptan-2-yl]-1H-pyrazole-4-carboxamide], the IC50 was found to be 639 nM.
Regarding `CC(C)(O)COc1ccc2c(C(=O)N[C@H]3C[C@]4(C3)C[C@H](Oc3nn5ccc(-c6ccc(F)nc6)cc5c3C(N)=O)C4)nn(C(F)F)c2c1` (stereo partly shown) [Example 136, 1-(difluoromethyl)-6-(2-hydroxy-2-methylpropoxy)-N-[(4s)-6-{[3-carbamoyl-5-(6-fluoropyridin-3-yl)pyrazolo[1,5-a]pyridin-2-yl]oxy}spiro[3.3]heptan-2-yl]-1H-indazole-3-carboxamide], the concentration for half-maximal inhibition (IC50) amounted to 112 nM.
Regarding `CC(C)(O)COc1ccc2c(C(=O)N[C@H]3C[C@]4(C3)C[C@H](Oc3nn5ccc(-c6ccccc6)cc5c3C(N)=O)C4)nn(C(F)F)c2c1` (stereo partly shown) [Example 137, 1-(difluoromethyl)-6-(2-hydroxy-2-methylpropoxy)-N-[(4s)-6-({3-carbamoyl-5-phenylpyrazolo[1,5-a]pyridin-2-yl}oxy)spiro[3.3]heptan-2-yl]-1H-indazole-3-carboxamide], the IC50 came to 150 nM.
Regarding `CCn1cc(C(N)=O)c(O[C@H]2C[C@@]3(C[C@H](NC(=O)c4cnn5c(C6CC6)c(OCC(C)(C)O)ccc45)C3)C2)n1` (stereo partly drawn) [Example 19, 3-({(aR)-6-[7-cyclopropyl-6-(2-hydroxy-2-methylpropoxy)pyrazolo [1,5-a]pyridine-3-amido]spiro[3.3]heptan-2-yl}oxy)-1-ethyl-1H-pyrazole-4-carboxamide], the half-inhibitory concentration (IC50) came to 10.5 nM.
`Cn1cc(C(N)=O)c(O[C@H]2C[C@@]3(C[C@H](NC(=O)c4cnn5cc(N6CCOCC6)ccc45)C3)C2)n1` (stereo partly drawn) [Example 32, 1-methyl-3-({(aR)-6-[6-(morpholin-4-yl)pyrazolo[1,5-a]pyridine-3-amido]spiro[3.3]heptan-2-yl}oxy)-1H-pyrazole-4-carboxamide] registered an IC50 of 29.9 nM.
